What was measured:
[1] = Solid stability evaluation for 1/2/4 weeks; conditions: for HPLC purity change after solid stability / form change after solid stability: all storage conditions;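 for all read-outs here: Solid-state physical and chemical stability tracked by XRPD for form, KF for water content, and HPLC for purity and assay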
Protocol: Type A/B were stored under the conditions of 60° C., 25° C./60% RH, 25° C./92.5% RH and 40° C./75% RH for 1/2/4 weeks for solid stability evaluation. Amorphous was stored under the conditions of 25° C./60% RH and 40° C./75% RH for 1/2/4 weeks for solid stability evaluation. The physical and chemical stability were evaluated by X-ray powder diffraction (XRPD), thermo gravimetric analysis (TGA)/Karl Fischer (KF), differential scanning calorimetry (DSC)/modulated differential I scanning calorimetry (mDSC), high performance liquid chromatography (HPLC) purity and assay, respectively.
XRPD, TGA, DSC and KF in this example are under the same conditions with those described in Example 2.
Agilent 1260 were utilized and detailed chromatographic conditions are listed in

[2] = Competitive slurry, inter-conversion of Type A and Type B; assay type: physicochemical
DVS water uptake = assay type: physicochemical
Protocol: DVS was measured via a SMS (Surface Measurement Systems) DVS Intrinsic or Intrinsic Plus. The relative humidity at 25° C. were calibrated against deliquescence point of LiCl, Mg(NO3)2 and KCl.

[3] = Polymorph characterization: form conversion on drying; assay type: physicochemical
Protocol: Using ABT-301 Type A (Sample name: ABT-301, CP ID: 826543-01-A) as starting material, a total of 100 polymorph screening experiments were performed, using methods of vapor-solution diffusion, vapor-solid diffusion, slow evaporation, slurry (RT and 50° C.), temperature cycling, slow cooling, anti-solvent addition and grinding.

In the case of `O=C(/C=C/c1ccc2c(c1)CCN2S(=O)(=O)c1ccccc1)NO` [Amorphous, (E)-N-hydroxy-3-(1-(phenylsulfonyl)indolin-5-yl) acrylamide], the Assay ([1]; 25° C./60% RH, 1 week) is reported as 91.3%, the “Form (XRPD)” value ([1]; 25° C./60% RH, 1 week) is reported as “Type A” and the HPLC purity ([1]; 25° C./60% RH, 1 week) is reported as 99.71 Area %. The Assay ([1]; 25° C./60% RH, 2 weeks) was 92.2%, the “Form (XRPD)” value ([1]; 25° C./60% RH, 2 weeks) was “Type A” and the HPLC purity ([1]; 25° C./60% RH, 2 weeks) was 99.76 Area %. The Assay ([1]; 25° C./60% RH, 4 weeks) was 90.7%, the “Form (XRPD)” value ([1]; 25° C./60% RH, 4 weeks) was “Type A” and the HPLC purity ([1]; 25° C./60% RH, 4 weeks) was 99.81 Area %. For the same compound, the Assay ([1]; 40° C./75% RH, 1 week) was 91.5%, the “Form (XRPD)” value ([1]; 40° C./75% RH, 1 week) was “Type A” and the HPLC purity ([1]; 40° C./75% RH, 1 week) was 99.75 Area %. The Assay ([1]; 40° C./75% RH, 2 weeks) was 92.1%, the “Form (XRPD)” value ([1]; 40° C./75% RH, 2 weeks) was “Type A” and the HPLC purity ([1]; 40° C./75% RH, 2 weeks) was 99.78 Area %. For the same compound, the Assay ([1]; 40° C./75% RH, 4 weeks) was 90.6%, the “Form (XRPD)” value ([1]; 40° C./75% RH, 4 weeks) was “Type A” and the HPLC purity ([1]; 40° C./75% RH, 4 weeks) was 99.84 Area %. The Assay ([1]; Initial) was 91.5%, the “Form (XRPD)” value ([1]; Initial) was “Amorphous” and the HPLC purity ([1]; Initial) was 99.84 Area %. For the same compound, the “HPLC purity change after solid stability” value ([1]; 4 weeks) was “no obvious HPLC purity change” and the “form change after solid stability” value ([1]; 4 weeks) was “converted to Type A”.
With `O=C(/C=C/c1ccc2c(c1)CCN2S(=O)(=O)c1ccccc1)NO` [Type A/Type B, (E)-N-hydroxy-3-(1-(phenylsulfonyl)indolin-5-yl) acrylamide] the “Result (form obtained, competitive slurry)” value (from here on “Result”) ([2]; 2-MeTHF, 50° C., 2 days) was “Type B”, the “Result” value ([2]; 2-MeTHF, RT, 2 days) was “Type B + P” and the “Result” value ([2]; Acetone (aw~0), RT, 2 days) was “Type D”. The “Result” value ([2]; Acetone/H2O (95:5, aw~0.4), RT, 1 day) was “Type D”, the “Result” value ([2]; Acetone/H2O (605:395, aw~0.8), RT, 1 day) was “Type D” and the “Result” value ([2]; Acetone/H2O (857:143, aw~0.6), RT, 1 day) was “Type D”. For the same compound, the “Result” value ([2]; Acetone/H2O (986:14, aw~0.2), RT, 1 day) was “Type D”, the “Result” value ([2]; H2O, RT, 1 day) was “Type A” and the “Result” value ([2]; MIBK, 50° C., 2 days) was “Type B”. The “Result” value ([2]; MIBK, RT, 2 days) was “Type O”, the “Result” value ([2]; Toluene, 50° C., 8 days) was “Type B” and the “Result” value ([2]; Toluene, RT, 1 day, without molecular sieve, KF 0.0250 wt %, water activity 0.32) was “Type A”. For the same compound, the “Result” value ([2]; Toluene, RT, 2 days, with molecular sieve, KF 0.0072 wt %, water activity 0.11) was “Type B”, the “Result” value ([2]; n-Heptane, 50° C., 8 days) was “Type B” and the “Result” value ([2]; n-Heptane, RT, 1 day, without molecular sieve, KF 0.0049 wt %, water activity 0.29) was “Type A”. The “Result” value ([2]; n-Heptane, RT, 2 days, with molecular sieve, KF 0.0003 wt %, water activity 0.02) was “Type B”, the “Result” value ([2]; t-Butanol, RT, 1 day, water activity 0.06) was “Type B” and the “Result” value ([2]; t-Butanol/H2O (886:121), RT, 3 days, water activity 0.88) was “Type A”. For the same compound, the “Result” value ([2]; t-Butanol/H2O (909:10), RT, 1 day, water activity 0.17) was “Type B”, the “Result” value ([2]; t-Butanol/H2O (962:71), RT, 3 days, water activity 0.71) was “Type A” and the “Result” value ([2]; t-Butanol/H2O (980:35), RT, 1 day, water activity 0.37) was “Type A”. The “Result” value ([2]; t-Butanol/H2O (985:30), RT, 3 days, water activity 0.56) was “Type A”.
For `O=C(/C=C/c1ccc2c(c1)CCN2S(=O)(=O)c1ccccc1)NO` [Type B, (E)-N-hydroxy-3-(1-(phenylsulfonyl)indolin-5-yl) acrylamide], the “water uptake (DVS)” value (DVS water uptake; 25° C./80% RH) was 0.1039%, the “form change after DVS test (XRPD)” value (DVS water uptake; after DVS test) was “no form change” and the “water activity at which the form was obtained in competitive slurry” value ([2]; t-Butanol and t-Butanol/H2O, RT, water activity calculated from KF by COSMOlogic) was ≤ 0.17. For the same compound, the Assay ([1]; 25° C./60% RH, 1 week) was 97.8%, the “Form (XRPD)” value ([1]; 25° C./60% RH, 1 week) was “Type B” and the HPLC purity ([1]; 25° C./60% RH, 1 week) was 99.85 Area %. For the same compound, the Assay ([1]; 25° C./60% RH, 2 weeks) was 96.8%, the “Form (XRPD)” value ([1]; 25° C./60% RH, 2 weeks) was “Type B” and the HPLC purity ([1]; 25° C./60% RH, 2 weeks) was 99.85 Area %. The Assay ([1]; 25° C./60% RH, 4 weeks) was 98.2%, the “Form (XRPD)” value ([1]; 25° C./60% RH, 4 weeks) was “Type B” and the HPLC purity ([1]; 25° C./60% RH, 4 weeks) was 99.86 Area %. The “KF (water content)” value ([1]; 25° C./60% RH, 4 weeks) was 2.0658%, the Assay ([1]; 40° C./75% RH, 1 week) was 97.6% and the “Form (XRPD)” value ([1]; 40° C./75% RH, 1 week) was “Type B”. For the same compound, the HPLC purity ([1]; 40° C./75% RH, 1 week) was 99.85 Area %, the Assay ([1]; 40° C./75% RH, 2 weeks) was 97.1% and the “Form (XRPD)” value ([1]; 40° C./75% RH, 2 weeks) was “Type B”. The HPLC purity ([1]; 40° C./75% RH, 2 weeks) was 99.84 Area %, the Assay ([1]; 40° C./75% RH, 4 weeks) was 97.8% and the “Form (XRPD)” value ([1]; 40° C./75% RH, 4 weeks) was “Type B”. For the same compound, the HPLC purity ([1]; 40° C./75% RH, 4 weeks) was 99.85 Area %, the “KF (water content)” value ([1]; 40° C./75% RH, 4 weeks) was 0.8491% and the Assay ([1]; 60° C., 1 week) was 98.0%. The “Form (XRPD)” value ([1]; 60° C., 1 week) was “Type B”, the HPLC purity ([1]; 60° C., 1 week) was 99.84 Area % and the Assay ([1]; 60° C., 2 weeks) was 96.5%. For the same compound, the “Form (XRPD)” value ([1]; 60° C., 2 weeks) was “Type B”, the HPLC purity ([1]; 60° C., 2 weeks) was 99.80 Area % and the Assay ([1]; 60° C., 4 weeks) was 97.9%. The “Form (XRPD)” value ([1]; 60° C., 4 weeks) was “Type B”, the HPLC purity ([1]; 60° C., 4 weeks) was 99.76 Area % and the “KF (water content)” value ([1]; 60° C., 4 weeks) was 1.9894%. For the same compound, the Assay ([1]; Initial) was 96.8%, the “Form (XRPD)” value ([1]; Initial) was “Type B” and the HPLC purity ([1]; Initial) was 99.85 Area %. For the same compound, the “KF (water content)” value ([1]; Initial) was 0.5387%, the Assay ([1]; […], 1 week) was 97.9% and the “Form (XRPD)” value ([1]; […], 1 week) was “Type B”. The HPLC purity ([1]; […], 1 week) was 99.85 Area %, the Assay ([1]; […], 2 weeks) was 96.8% and the “Form (XRPD)” value ([1]; […], 2 weeks) was “Type B”. For the same compound, the HPLC purity ([1]; […], 2 weeks) was 99.85 Area %, the Assay ([1]; […], 4 weeks) was 98.1% and the “Form (XRPD)” value ([1]; […], 4 weeks) was “Type B”. The HPLC purity ([1]; […], 4 weeks) was 99.85 Area %, the “KF (water content)” value ([1]; […], 4 weeks) was 1.8514% and the “HPLC purity change after solid stability” value ([1]; 4 weeks) was “no form change, or obvious HPLC purity change”. The “form change after solid stability” value ([1]; 4 weeks) was “no form change”.
With `O=C(/C=C/c1ccc2c(c1)CCN2S(=O)(=O)c1ccccc1)NO` [Type P, (E)-N-hydroxy-3-(1-(phenylsulfonyl)indolin-5-yl) acrylamide] the “form conversion on drying” value ([3]; dried at RT overnight) was “The sample converted to Type A after dried at RT overnight”.
In the case of `O=C(/C=C/c1ccc2c(c1)CCN2S(=O)(=O)c1ccccc1)NO` [Type Q, (E)-N-hydroxy-3-(1-(phenylsulfonyl)indolin-5-yl) acrylamide], the “form conversion on drying” value ([3]; dried at RT in open air for 8 days and under vacuum for 16.5 hours) is reported as “The sample converted to Type M after dried at RT in open”.
